Laboratory results reported in paper PMC8772772, “Enantioselective Synthesis and Pharmacological Evaluation of Aza-CGP37157–Lipoic Acid Hybrids for the Treatment of Alzheimer’s Disease” (Antioxidants, 2022).
Where two headings read alike, the source gives them in different places.

Columns and labels:
[1] = system: SH-SY5Y neuroblastoma cells; assay: Neuroprotection against okadaic acid hyperphosphorylation in SH-SY5Y cells (MTT); type: cell-based, human; details: compound 1 μM 24 h, then compound + OA 24 h; for % Survival: basal = 100, OA alone 54.7; for % Protection: n.p = compound does not protect cells
Experimental: (§1) Human neuroblastoma SH-SY5Y cells were plated in 96-well clear multi-well plates (6 × 10^4 cells/well). The potential neuroprotective activity of compounds against OS was evaluated using the rotenone (30 μM) (SigmaAldrich, R8875) and oligomycin A (10 μM) (SigmaAldrich, 75351) (R/O) toxic mixture. Neuroprotection activity against Tau hyperphosphorylation was evaluated by using the okadaic acid (20 nM) model. Cells were pre-incubated with each compound (1 µM) for 24 h, and then treatments were removed and cells were incubated with compounds (1 µM) in the presence the corresponding toxic for additional 24 h. At the end of the experiments, viability was determined by the MTT method. Data were normalized from cell death induced by the toxic stimuli (considered as 100% cell death). Then, the protection percentages were calculated by subtracting from the death induced by toxic stimuli, the death in the presence of the compound.
(§2) The tetrazolium ring of MTT can be cleaved by active dehydrogenases to produce a formazan precipitate. At the end of the experiments, MTT (SigmaAldrich, M2003) stock solution was added to each well to achieve a final concentration of 0.5 mg/mL. Cells were incubated for 2 h. Thereafter, culture media was removed, and DMSO was added to each well to dissolve the formazan precipitate. Finally, absorbance was measured in a microplate reader (SPECTROstar nano, BMG Labtech) at 570 nm. Absorbance obtained in basal conditions was considered as 100% cell viability.
Considering these precedents, we envisaged the evaluation of our compounds in a hyperphosphorylation toxicity model induced by okadaic acid (OA), a protein phosphatase 2A inhibitor [58, 59]. This inhibition causes an imbalance between kinase and phosphatase action, leading to hyperphosphorylation of proteins, in particular, Tau. Thus, treatment of SH-SY5Y neuroblastoma cells with OA is a well-stablished model of Tau hyperphosphorylation. Similarly, to the method used for the OS model, we selected a pre-incubation/co-incubation protocol to evaluate the potential neuroprotection capacity related to the NRF2 induction/antioxidant properties of the compounds. Cells were treated with compounds (±)-6, R-6, S-6 or 7a–d (1 µM) during 24 h; thereafter, cells were co-treated with compounds (1 µM) and OA (20 nM) for a further 24 h. Melatonin was also included as a positive control. Finally, cellular viability was evaluated by the MTT method. […] Finally, the (R,S)-7c diastereomer was not able to afford any protection, a result that might be in line with its low NRF2 induction capacity.

[2] = system: SH-SY5Y neuroblastoma cells; assay: Neuroprotection against rotenone/oligomycin A oxidative stress in SH-SY5Y cells (MTT); type: cell-based, human; details: compound 1 μM 24 h, then compound + R/O (30/10 μM) 24 h; for % Survival: basal = 100, R/O alone 53.4
Experimental: as §1, §2
Thus, we selected a pre-incubation protocol to evaluate their potential neuroprotective capacity based on the NRF2-induction activity and direct antioxidant effect. Compound pre-incubation would induce the expression of antioxidant enzymes regulated by the phase II antioxidant response, thus promoting cells’ survival. The co-incubation period would also evaluate their capacity to trap free radicals produced by intoxicated mitochondria. SH-SY5Y neuroblastoma cells were treated with compounds (1 µM) during 24 h, and then cells were co-incubated with the corresponding compound at the same concentration and the R/O combination (30/10 µM) for additional 24 h. Melatonin, a well-known antioxidant natural neurohormone, was included as a positive control (1 µM). Previously reported racemic derivatives (rac-3a and (rac,R)-3b) and their precursors ((±)-6, R-6 and S-6) were included for comparative purposes at the same concentration.

[3] = system: NRF2; details: AREc32 cells, 24 h; Table S1; ref [2] of the supplement; cited from earlier work
[4] = system: BV2 microglial cells; assay: Nitrite production reduction in LPS-stimulated BV2 microglial cells (Griess); type: cell-based, mouse; details: Mus musculus, BV-2; 24 h pretreatment 0.3, 3, 10, 30 μM, then compound + LPS 100 ng/mL 18 h, Griess
Experimental: BV2 microglial cells were seeded at 2 × 10^4 cells/well and treated with compounds at increasing concentrations during 24 h in complete culture media. Then, treatments were removed, and BV2 cells were co-incubated with compounds and LPS (100 ng/mL) (O127:B8, SigmaAldrich, L3129) for additional 18 h in culture media supplemented with 1% FBS. Each plate included non-treated cells as basal nitrite production. Thereafter, nitrite production was determined by using the modified Griess assay. In brief, samples (150 μL) were mixed with DAPSONE (75 μL) (SigmaAldrich, A74807) and NEDA (75 μL) (SigmaAldrich, 33461), and the mixture was incubated at room temperature for 5 min. Light absorption was measured at 550 nm in a microplate reader (SPECTROstar nano, BMG Labtech). Basal nitrite production was referred to as 100% of nitrite production, and all data were normalized to the basal condition. Concentration needed to reduce nitrite production to 50% was calculated from graphical representation of percentage of nitrite production vs. compound concentration, and data were fitted by non-linear regression and interpolated to 50%.
Chronic neuroinflammation is considered a key pathological event in the early stages of AD development. Among immune cells present at CNS, microglia is related to host defense and tissue repair. Nonetheless, chronic neuroinflammation induced by an adverse environment of protein aggregates and exacerbated OS induces a neurotoxic activity of microglia that, finally, leads to neuronal death. […] To this end, we selected the BV2 microglial cell model stimulated by lipopolysaccharide (LPS), a TLR4 agonist that activates the pro-inflammatory response. CGP37157, R- and S-LA; analogue compounds rac-3a and (rac,R)-3b; and precursor derivatives 6 were included with comparative and reference purposes. Microglial BV2 cells were treated with increasing concentrations of the corresponding compound (0.3, 3, 10 and 30 µM) for 24 h following a pre-incubation protocol. Thereafter, treatments were exchanged by a combination of the corresponding compound at desired concentration and LPS (100 ng/mL) during 18 h. At the end of this period, nitrite production was evaluated by the Griess method as an indirect measurement of iNOS enzyme expression and BV2 activation.

[5] = system: NRF2; assay: NRF2 induction, luciferase expression in AREc32 cell line; type: cell-based; details: AREc32 cells, 0.3, 3, 10 and 30 μM (LA: 0.1–0.6 mM), 24 h; mean ± SEM
Experimental: AREc32 cell line was kindly shared by Professor Roland Wolf (University of Dundee, UK). AREc32 cells were maintained in DMEM/glutamax/high glucose (Gibco, 61965-06, Madrid, Spain), supplemented with 1% penicillin–streptomycin (10,000 units) (SigmaAldrich, P4333, Madrid, Spain), geneticin (0.8 mg/mL) (Gibco, 11811-031) and 10% FBS (Gibco, 10270106), at 37 °C in a 5% CO2 air atmosphere. Cells were used from passage 4 to 18, and mycoplasma contamination was tested every 4 weeks. AREc32 cells were seeded in 96-well white plates (2 × 10^4 cells/well) for 24 h. Thereafter, cells were treated with each compound (0.3, 3, 10 and 30 µM) in duplicate for 24 h. Non-treated cells were included as basal luciferase expression and tert-butylhydroquinone (TBHQ, 10 μM) as positive control in each plate. Luciferase expression was evaluated by using the Luciferase Assay System (Promega, E1483, Madrid, Spain) by luminescence in an Orion II microplate luminometer (Berthold, Germany). Luciferase activity increase was normalized to basal conditions considered as 1. CD values (concentration required to double the luciferase activity) were calculated from dose–response curves of luciferase fold induction vs. compound concentration, fitted by non-linear regression and data interpolated to value 2.
To evaluate the influence of both stereogenic centers in the NRF2 induction capacity of aza-CGP37157-LA hybrids, we used the AREc32 cell line model by analyzing luciferase expression upon treatment with NRF2 inducers. AREc32 cells were exposed to increasing concentrations of tested compounds 7a–d (0.3, […], 10 and 30 μM) during 24 h; thereafter, luciferase expression was evaluated by luminescent assay to calculate the corresponding CD value (concentration to double luciferase expression). […] TBHQ was included as a positive control, and CGP37157, S- and R-LA, rac-3a and (rac,R)-3b and precursors derivatives (R-6 and S-6) were included for comparative purposes. […] Once R-LA is reduced, it might activate the phase II antioxidant response by acting as pro-oxidant over key Cys residues at KEAP1 to generate the corresponding lipoyl-cystinyl disulphide.

[6] = DPPH reduction assay, antioxidant capacity; details: for IC50: mean ± SEM of three experiments; for DPPH Scavenging at 100 µM, %: compound 100 µM; for DPPH Scavenging at 100 µM, % / DPPH Scavenging at 1mM, %: DPPH 100 µM, 30 min, mean ± SEM; for DPPH Scavenging at 1mM, %: compound 1 mM
Experimental: Antioxidant capacity was evaluated by using described procedure slightly modified. Compounds (0.1 and 1 mM, final concentration) were diluted in assay media (EtOH/H2O, 70:30) and mixed with 100 μL of DPPH (SigmaAldrich, D9132, Madrid, Spain) solution (100 μM final concentration) in a clear 96-multiwell plate. Final solution was kept in dark for 30 min, and absorbance of DPPH was measured in a SpectroStar Nano plate-reader (BMG Labtech, Ortenberg, Germany) in duplicate at […]. All experiments included a blank (assay media), control (DPPH 100 μM) and a positive control (ascorbic acid, 100 μM). Data were evaluated as % absorbance (Abs) reduction of control after subtracting blank absorbance. % DPPH reduction = [100 − ((Abssample − Absblank) × 100]/Abscontrol
Initially, we evaluated the free-radical-scavenging capacity of derivatives 7a–d in the DPPH assay, based on the capacity of the tested derivatives to react with the 2,2-diphenyl-1-picrylhydracil radical to generate a non-radical derivate. Hybrid derivatives 7a–d were evaluated at two different concentrations (0.1 and 1 mM), considering the activities of previously reported racemic derivatives. […] Ascorbic acid was used as a positive control, and CGP37157, rac-3a and (rac,R)-3b were included as references. […] Those results are similar to those obtained for racemic mixtures 3a and 3b and a mixture of (S,R)-7b and (R,R)-7d obtained from rac-3 and R-lipoic acid.

[7] = Cytotoxicity in SH-SY5Y cell line (MTT); type: cell-based; details: human
Experimental: SH-SY5Y human neuroblastoma cells were seeded in 96-well clear multi-well plates (6 × 10^4 cells/well). Cells were treated with increasing concentrations of compounds (10, 30 and 100 μM) for 24 h. Thereafter, viability was assessed by the MTT method. Cytotoxic concentration to observe 50% mortality (CC50) values for compounds were interpolated from dose–response curves represented as percentage of cell death vs. concentration of compound, fitted by non-linear regression and data interpolated to value 50.
as §2
In order to evaluate the potential pharmacological profile of new compounds, we first tested the potential neurotoxicity in the neuroblastoma SHSY5Y cell line. Toxicity was evaluated at increasing concentrations (10, 30 and 100 μM), and toxicity was measured as MTT reduction capability. CC50 values were calculated by non-linear regression of curves % survival vs. concentration (Supplementary Materials Figure S2). CGP37157 and previously studied racemic derivatives rac-3a and (rac,R)-3b were included as reference compounds. As previously described, LA is a non-neurotoxic compound at the concentrations texted.

| IC50 [4] [µM] | IC50 [6] [µM] | SMILES | % Survival [1] [%] | % Protection [1] [%] | % Survival [2] [%] | CD (concentration required to double the specific luciferase activity) [3] [µM] | CD (concentration required to double the specific luciferase activity) [5] [µM] | DPPH Scavenging at 100 µM, % [6] [%] | DPPH Scavenging at 1mM, % [6] [%] | CC50 at 24 h [7] [µM] | % Protection [2] [%] |
| --- | --- | --- | --- | --- | --- | --- | --- | --- | --- | --- | --- |
|  |  | O=C1CN(CCO)C(c2ccccc2Cl)c2cc(Cl)ccc2N1 (racemic) [(±)-6, (rac)-7-Chloro-5-(2-chlorophenyl)-4-(2-hydroxyethyl)-4,5-dihydro-1H-benzo[e][1,4]diazepin-2(3H)-one, reference compound] | 69.1 ± 6.4 | 33.4 | 74.4 ± 4.1 | > 30 |  |  |  |  |  |
| > 30 |  | O=C(O)CCCC[C@H]1CCSS1 [(S)-Lipoic acid, reference compound] |  |  |  |  | > 600 |  |  |  |  |
|  | 16.2 ± 0.7 | O=C1O[C@H]([C@@H](O)CO)C(O)=C1O [Ascorbic acid, reference compound] |  |  |  |  |  |  |  |  |  |
|  |  | O=C1CN(CCO)[C@@H](c2ccccc2Cl)c2cc(Cl)ccc2N1 [Compound R-6, (5R)-7-Chloro-5-(2-chlorophenyl)-4-(2-hydroxyethyl)-4,5-dihydro-1H-benzo[e][1,4]diazepin-2(3H)-one] | 59.3 ± 10.6 | 14.2 | 75.1 ± 2.9 |  | 11.8 ± 0.5 | 10.30 ± 1.10 | 26.7 ± 1.3 | > 100 | 45.7 |
|  |  | O=C1CN(CCO)[C@H](c2ccccc2Cl)c2cc(Cl)ccc2N1 [Compound S-6, (5S)-7-Chloro-5-(2-chlorophenyl)-4-(2-hydroxyethyl)-4,5-dihydro-1H-benzo[e][1,4]diazepin-2(3H)-one] | 71.5 ± 10.0 | 41.9 | 74.7 ± 2.5 |  | 14.4 ± 0.2 | 8.47 ± 2.42 | 25.3 ± 1.5 | > 100 | 51.5 |
|  |  | COc1ccc2[nH]cc(CCNC(C)=O)c2c1 [Mel, Melatonin, reference compound] | 70.3 ± 4.3 | 31.1 | 68.0 ± 1.5 |  |  |  |  |  | 46.1 |
|  | 11.4 ± 1 | Cc1c(C)c2c(c(C)c1O)CCC(C)(C(=O)O)O2 (stereo not drawn) [Trolox, reference compound] |  |  |  |  |  | 93.4 ± 0.5 | 92.2 ± 0.5 |  |  |
